Measurements: ChEMBL document CHEMBL5506057, “Discovery and Optimization of Potent, Efficacious and Selective Inhibitors Targeting EGFR Exon20 Insertion Mutations” (J Med Chem, 2024)

How the values were obtained:
[1] = Lipophilicity, logD of compound in octanol and aqueous buffer at pH 7.4 incubated for 2 hrs by shake-flask method based LC-MS/MS analysis; type: physicochemical
[2] = Metabolic stability in human liver microsomes assessed as intrinsic clearance at 1 uM incubated for 30 mins in presence of NADPH by LC-MS/MS analysis; type: ADME, Microsome; conditions: read-out: CLH
[3] = GSH reactivity of compound in phosphate buffer assessed as half-life at pH 7.4 at 1 uM by LC-MS/MS analysis; type: physicochemical; conditions: phosphate buffer with GSH
[4] = Intrinsic permeability in human Caco-2 cells at 10 uM; type: ADME, cell-based; conditions: read-out: permeability
[5] = biological target: Epidermal growth factor receptor (Homo sapiens, UniProt P00533, D770-N771INSNPG); experiment: Inhibition of 6His-tagged TEV-GS fused EGFR D770_N771insNPG mutant (G696 to G1210 reisudes) (unknown origin) expressed in Sf21 cells using Poly(Glu,Tyr) peptide as substrate preincubated for 15 mins followed by substrate addition and measured after 30 mins in presence of ATP by ADP-Glo reagent based assay
[6] = biological target: T1, Epidermal growth factor receptor (Homo sapiens, UniProt P00533); experiment: Inhibition of recombinant wildtype human N-terminal GST-tagged EGFR cytoplasmic domain (669 to 1210 residues) expressed in Sf21 insect cells using Poly(Glu,Tyr) peptide as substrate preincubated for 15 mins followed by substrate addition and measured after 50 mins in presence of ATP by ADP-Glo reagent based assay
[7] = Selectivity ratio of IC50 for inhibition of recombinant wildtype human N-terminal GST-tagged EGFR cytoplasmic domain (669 to 1210 residues) expressed in Sf21 insect cells to IC50 for inhibition of 6His-tagged TEV-GS fused EGFR D770_N771insNPG mutant (G696 to G1210 reisudes) (unknown origin) expressed in Sf21 cells
[8] = biological target: T1, Epidermal growth factor receptor; experiment: Inhibition of wildtype EGFR (unknown origin) phosphorylation transfected in human NCI-H2073 cells preincubated for 2 hrs followed by EGF stimulation for 10 mins by HTRF assay; type: cell-based
[9] = biological target: T2, Epidermal growth factor receptor (Homo sapiens, UniProt P00533, D770-N771INSSVD); experiment: Inhibition of EGFR D770_N771insSVD mutant (unknown origin) phosphorylation transfected in human NCI-H2073 cells incubated for 2 hrs by HTRF assay; type: cell-based
[10] = Selectivity ratio of IC50 for inhibition of wildtype EGFR (unknown origin) transfected in human NCI-H2073 cells preincubated for 2 hrs followed by EGF stimulation for 10 mins by HTRF assay to IC50 for inhibition of EGFR D770_N771insSVD mutant (unknown origin) transfected in human NCI-H2073 cells incubated for 2 hrs by HTRF assay; type: cell-based
[11] = Selectivity ratio of Ki/Kinact for inhibition of EGFR D770_N771insNPG mutant (unknown origin) using AQT0099 as substrate to Ki/Kinact for inhibition of wildtype EGFR (unknown origin) using AQT0099 as substrate
[12] = biological target: T1, Epidermal growth factor receptor; experiment: Inhibition of wildtype EGFR (unknown origin) phosphorylation transfected in human NCI-H2073 cells preincubated for 2 hrs followed by EGF stimulation for 10 mins by ELISA; type: cell-based
[13] = biological target: T2, Epidermal growth factor receptor; experiment: Inhibition of EGFR D770_N771insSVD mutant (unknown origin) phosphorylation transfected in human NCI-H2073 cells incubated for 2 hrs by ELISA; type: cell-based
[14] = Selectivity ratio of IC50 for inhibition of wildtype EGFR (unknown origin) transfected in human NCI-H2073 cells preincubated for 2 hrs followed by EGF stimulation for 10 mins by ELISA to IC50 for inhibition of EGFR D770_N771insSVD mutant (unknown origin) transfected in human NCI-H2073 cells incubated for 2 hrs by ELISA; type: cell-based
[15] = Metabolic stability in rat hepatocytes assessed as intrinsic clearance measured per 10^6 cells at 1 uM incubated for 120 mins by LC-MS/MS analysis; type: ADME, cell-based, Hepatocyte; conditions: read-out: CLH
[16] = Metabolic stability in CD-1 mouse hepatocytes assessed as intrinsic clearance measured per 10^6 cells at 1 uM incubated for 120 mins by LC-MS/MS analysis; type: ADME, cell-based, Hepatocyte; conditions: read-out: CLH
[17] = Duration (time) of SCID mouse free plasma concentration cover over EGFR insSVD cell IC50 at 50 mg/kg, po; type: ADME, organism-based; conditions: in vivo

T1 sequence (P00533 whole entry, the tested form may be a part): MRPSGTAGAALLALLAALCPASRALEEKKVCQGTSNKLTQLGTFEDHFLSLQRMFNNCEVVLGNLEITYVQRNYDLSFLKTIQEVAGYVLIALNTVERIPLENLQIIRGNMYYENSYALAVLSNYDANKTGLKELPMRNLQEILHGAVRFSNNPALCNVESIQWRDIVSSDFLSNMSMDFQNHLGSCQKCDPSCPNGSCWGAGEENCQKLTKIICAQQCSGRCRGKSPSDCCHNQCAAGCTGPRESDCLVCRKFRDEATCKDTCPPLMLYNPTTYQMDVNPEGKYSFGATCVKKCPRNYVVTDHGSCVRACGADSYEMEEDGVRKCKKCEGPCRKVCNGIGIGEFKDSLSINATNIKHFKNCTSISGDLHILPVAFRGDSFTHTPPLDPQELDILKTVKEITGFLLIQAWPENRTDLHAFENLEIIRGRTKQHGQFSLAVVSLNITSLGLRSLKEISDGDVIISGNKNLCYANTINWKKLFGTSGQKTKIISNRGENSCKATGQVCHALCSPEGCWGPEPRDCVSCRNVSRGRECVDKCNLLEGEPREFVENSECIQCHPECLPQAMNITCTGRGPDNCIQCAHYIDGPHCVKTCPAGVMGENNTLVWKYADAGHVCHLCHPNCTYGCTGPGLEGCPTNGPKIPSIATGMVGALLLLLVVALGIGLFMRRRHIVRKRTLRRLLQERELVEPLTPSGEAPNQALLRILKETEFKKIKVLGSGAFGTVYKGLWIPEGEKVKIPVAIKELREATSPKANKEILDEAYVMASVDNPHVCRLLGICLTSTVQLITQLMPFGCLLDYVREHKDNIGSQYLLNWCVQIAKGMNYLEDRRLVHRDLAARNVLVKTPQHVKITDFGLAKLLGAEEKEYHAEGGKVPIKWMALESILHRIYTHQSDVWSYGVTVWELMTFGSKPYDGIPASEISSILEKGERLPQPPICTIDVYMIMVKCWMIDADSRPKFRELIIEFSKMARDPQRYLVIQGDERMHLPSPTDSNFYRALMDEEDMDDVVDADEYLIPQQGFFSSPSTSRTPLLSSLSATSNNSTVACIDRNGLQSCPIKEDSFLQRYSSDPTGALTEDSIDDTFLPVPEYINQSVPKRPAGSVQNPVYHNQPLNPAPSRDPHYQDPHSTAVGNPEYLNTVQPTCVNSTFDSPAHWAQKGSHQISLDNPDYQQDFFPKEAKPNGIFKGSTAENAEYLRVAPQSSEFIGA
T2 sequence (P00533 whole entry, looked up, stated change not applied): as the sequence (P00533 whole entry, the tested form may be a part) above
Chain of Epidermal growth factor receptor (Homo sapiens, UniProt P00533, D770-N771INSNPG) (P00533 whole entry, looked up, stated change not applied, the tested form may be a part): as the sequence (P00533 whole entry, the tested form may be a part) above

Compound	logD at 2 h [1]	microsomal CLint at 1 µM [2] [µL/min/mg]	hepatocyte CLint at 1 µM [15] [µL/min/1e6 cells]	further results
C=CC(=O)NCCn1cc(-c2ncnc3cc(OC)c(OC)cc23)c(-c2cccc(OC)c2)n1	2.4	116	–	half-life at 1 µM [3]: 49.3 h
C=CC(=O)Nc1ccc(OC)c(Nc2cc(-c3c[nH]nc3-c3cccc(OCc4ccc5c(c4)CN(C)C5=O)c3)ccn2)c1	3.9	> 300	–	Papp at 10 µM [4]: 7.5 ×10⁻⁶ cm/s
C=CC(=O)Nc1cc(Nc2ncc(C(=O)OC(C)C)c(-c3cn(C)c4ccccc34)n2)c(OC)cc1N(C)CCN(C)C [MOBOCERTINIB]	–	–	–	IC50 [5]: < 3 nM; IC50 [6]: 1 nM; Ratio IC50 [7]: > 0.4; IC50 [8]: 37 nM; IC50 [9]: 34 nM; Ratio IC50 [10]: 1.1; Selectivity ratio [11]: 0.63; IC50 [12]: 30 nM; IC50 [13]: 22 nM; Ratio IC50 [14]: 1.4
C=CC(=O)N1C[C@@H](n2cc(-c3ccncc3)c(-c3cc(COc4ccc5c(c4)CN(C)C5=O)ccc3F)n2)C[C@H]1C	3.3	> 300	55	–
C=CC(=O)N1CC[C@H](n2cc(-c3ncnc4cc(OC)c(OC)cc34)c(-c3cccc(OC)c3)n2)C1	2.4	157	–	–
C=CC(=O)N1CC[C@H](n2cc(-c3ccncc3)c(-c3cccc(/C=C/c4cc5n(n4)CCOC5)c3)n2)C1	3.5	167	62	–
C=CC(=O)N1CC(Oc2cc3c(-c4c[nH]nc4-c4cccc(OC)c4)ncnc3cc2OC)C1	2	33	–	–
C=CC(=O)N1C[C@@H](n2cc(-c3ccncc3)c(-c3ccc(F)c(COc4ccc5c(c4)CN(C)C5=O)c3)n2)C[C@H]1C	3.6	> 300	173	–
Fc1ccccc1COc1cccc(-c2n[nH]cc2-c2ccncn2)c1	3.5	117	–	–
C=CC(=O)N1C[C@@H](n2cc(-c3ccncc3)c(-c3cccc(COc4ccc5c(c4)CN(C)C5=O)c3)n2)C[C@H]1C	3.4	> 300	58	hepatocyte CLint at 1 µM [16]: 30 µL/min/1e6 cells; Time [17]: 3 h
CN1Cc2cc(COc3cccc(-c4n[nH]cc4-c4ccncc4)c3)ccc2C1=O	3.1	77	–	IC50 [5]: 150 nM; IC50 [6]: > 7400 nM; Ratio IC50 [7]: > 50
Fc1ccccc1COc1cccc(-c2n[nH]cc2-c2ccncc2)c1	> 4.9	226	–	–
C=CC(=O)N1CC[C@H](n2cc(-c3ccncc3)c(-c3cccc(OCc4ccc5c(c4)CN(C)C5=O)c3)n2)C1	2.6	> 264	–	hepatocyte CLint at 1 µM [16]: 64 µL/min/1e6 cells
C=CC(=O)N1CC(n2cc(-c3ccncc3)c(-c3cccc(NC(=O)c4cn(C5CC5)cn4)c3)n2)C1	2.2	19	58	hepatocyte CLint at 1 µM [16]: 150 µL/min/1e6 cells
C#CC(=O)NCCn1cc(-c2ncnc3cc(OC)c(OC)cc23)c(-c2cccc(OC)c2)n1	2.1	105	–	half-life at 1 µM [3]: 0.917 h
C=CC(=O)N1CC[C@H](n2cc(-c3ccncc3)c(-c3cc(F)cc(OCc4ccc5c(c4)CN(C)C5=O)c3)n2)C1	3.3	> 300	–	IC50 [8]: > 28000 nM; IC50 [9]: 540 nM; Ratio IC50 [10]: > 52
C=CC(=O)N1CC[C@H](n2cc(-c3ccncc3)c(-c3cc(OCc4ccc5c(c4)CN(C)C5=O)ccc3F)n2)C1	2.7	> 300	–	–
COc1cc2ncnc(-c3c[nH]nc3-c3cccc(OCc4ccc5c(c4)CN(C)C5=O)c3)c2cc1OC	–	> 300	–	–
C=CC(=O)N1CC[C@H](n2cc(-c3ccncn3)c(-c3cccc(/C=C/c4ncc(C5CC5)o4)c3)n2)C1	3.7	202	67	–
C=CC(=O)N1CC[C@H](n2cc(-c3ccncc3)c(-c3cccc(NC(=O)c4cccc(OC)c4F)c3)n2)C1	2.9	175	51	Papp at 10 µM [4]: 42 ×10⁻⁶ cm/s
C=CC(=O)N1CC[C@H](n2cc(-c3ccncc3)c(-c3cccc(NC(=O)c4ncc(C5CC5)o4)c3)n2)C1	3.1	166	187	Papp at 10 µM [4]: 30 ×10⁻⁶ cm/s
C=CC(=O)N1C[C@@H](n2cc(-c3ccncc3)c(-c3cccc(OCc4ccc5c(c4)CN(C)C5=O)c3)n2)C[C@@H]1C	3	> 300	–	–
C=CC(=O)Nc1ccc(OC)c(Nc2nccc(-c3c[nH]nc3-c3cccc(OC)c3)n2)c1	4.1	46	–	Papp at 10 µM [4]: 64 ×10⁻⁶ cm/s; half-life at 1 µM [3]: 5.35 h
C=CC(=O)N1CC[C@H](n2cc(-c3ccncc3)c(-c3cccc(NC(=O)c4cn(C5CC5)cn4)c3)n2)C1	2.5	64	38	hepatocyte CLint at 1 µM [16]: 42 µL/min/1e6 cells; Time [17]: 1 h
C=CC(=O)N1CC[C@H](n2cc(-c3ccncc3)c(-c3cccc(COc4ccc5c(c4)CN(C)C5=O)c3)n2)C1	3	> 300	128	–
C=CC(=O)N1CC[C@@H](n2cc(-c3ncnc4cc(OC)c(OC)cc34)c(-c3cccc(OC)c3)n2)C1	2.4	135	–	–
C=CC(=O)N1CC[C@H](n2cc(-c3ccncc3)c(-c3cccc(NC(=O)c4ccc5c(c4)CN(C)C5=O)c3)n2)C1	2.2	58	21	Papp at 10 µM [4]: < 0.36 ×10⁻⁶ cm/s
C=CC(=O)N1CC(n2cc(-c3ccncc3)c(-c3cccc(/C=C/c4ncc(C5CC5)o4)c3)n2)C1	4.4	51	48	hepatocyte CLint at 1 µM [16]: 64 µL/min/1e6 cells
C=CC(=O)N1C[C@@H](n2cc(-c3ccncc3)c(-c3cccc(OCc4ccc5c(c4)CN(C)C5=O)c3)n2)C[C@H]1C	3.2	> 300	–	–
C=CS(=O)(=O)NCCn1cc(-c2ncnc3cc(OC)c(OC)cc23)c(-c2cccc(OC)c2)n1	2.2	192	–	half-life at 1 µM [3]: 1.15 h
